Test system: spinal cord transcriptome
Assay: RNA-Seq of spinal cord tissue from 2B/- and 2B/+ mice
Type: in vivo, mouse
[1] = 2B+ spinal cord RNA Seq polyA, WT-RG vs. WT-Veh, adjusted p-value 1.01E-05
[2] = 2B+ spinal cord RNA Seq polyA, WT-RG vs. WT-Veh, adjusted p-value 3.86E-06

Nc1nc(N)c2c(OCC3CCN(Cc4c(Cl)cccc4Cl)CC3)cccc2n1 [RG3039]
log2(fold-change) 4632404H12Rik transcript [1]: 1.233
log2(fold-change) Ifi44 transcript [1]: 3.126
log2(fold-change) Snhg11 transcript [1]: 0.9645
log2(fold-change) Scn10a transcript [2]: -4.931
log2(fold-change) Tmem233 transcript [2]: -5.091
log2(fold-change) 1700024P16Rik (2B-Veh vs 2B-RG3039): -0.9143
log2(fold-change) 2010001M06Rik (2B-Veh vs 2B-RG3039): -0.4589
log2(fold-change) 2810417H13Rik (2B-Veh vs 2B-RG3039): 0.7557
log2(fold-change) 2810459M11Rik (2B-Veh vs 2B-RG3039): 0.8489
log2(fold-change) 6330444E15Rik (2B-Veh vs 2B-RG3039): -1.493
log2(fold-change) 8430408G22Rik (2B-Veh vs 2B-RG3039): -1.92
log2(fold-change) A230028O05Rik (2B-Veh vs 2B-RG3039): -1.123
log2(fold-change) AI429214 (2B-Veh vs 2B-RG3039): -0.7864
log2(fold-change) AW495222 (2B-Veh vs 2B-RG3039): -0.8389
log2(fold-change) Abcc4 (2B-Veh vs 2B-RG3039): -0.4948
log2(fold-change) Acacb (2B-Veh vs 2B-RG3039): -0.9081
log2(fold-change) Acer2 (2B-Veh vs 2B-RG3039): -1.144
log2(fold-change) Ada (2B-Veh vs 2B-RG3039): -2.097
log2(fold-change) Adhfe1 (2B-Veh vs 2B-RG3039): -0.3934
log2(fold-change) Adipor2 (2B-Veh vs 2B-RG3039): -1.046
log2(fold-change) Adm (2B-Veh vs 2B-RG3039): -0.7407
log2(fold-change) Alox12 (2B-Veh vs 2B-RG3039): 1.236
log2(fold-change) Alpl (2B-Veh vs 2B-RG3039): 0.9933
log2(fold-change) Angptl2 (2B-Veh vs 2B-RG3039): 0.7515
log2(fold-change) Angptl4 (2B-Veh vs 2B-RG3039): -1.6266
log2(fold-change) Apln (2B-Veh vs 2B-RG3039): 0.547
log2(fold-change) Aplnr (2B-Veh vs 2B-RG3039): 1.065
log2(fold-change) Arrdc2 (2B-Veh vs 2B-RG3039): -1.418
log2(fold-change) Arrdc3 (2B-Veh vs 2B-RG3039): -0.727
log2(fold-change) Aspm (2B-Veh vs 2B-RG3039): 0.9497
log2(fold-change) Aurkb (2B-Veh vs 2B-RG3039): 0.7105
log2(fold-change) BC049352 (2B-Veh vs 2B-RG3039): -1.185
log2(fold-change) BC064078 (2B-Veh vs 2B-RG3039): -0.6877
log2(fold-change) Barx2 (2B-Veh vs 2B-RG3039): 0.4279
log2(fold-change) Bdh2 (2B-Veh vs 2B-RG3039): -0.7221
log2(fold-change) Bst2 (2B-Veh vs 2B-RG3039): 1.093
log2(fold-change) Btbd16 (2B-Veh vs 2B-RG3039): -0.8478
log2(fold-change) Bub1b (2B-Veh vs 2B-RG3039): 0.7302
log2(fold-change) C130074G19Rik (2B-Veh vs 2B-RG3039): 0.558
log2(fold-change) C330021F23Rik (2B-Veh vs 2B-RG3039): 1.369
log2(fold-change) C430049B03Rik (2B-Veh vs 2B-RG3039): 0.7515
log2(fold-change) Casc5 (2B-Veh vs 2B-RG3039): 0.9628
log2(fold-change) Ccdc150 (2B-Veh vs 2B-RG3039): -0.9419
log2(fold-change) Ccna2 (2B-Veh vs 2B-RG3039): 0.5769
log2(fold-change) Ccnb1 (2B-Veh vs 2B-RG3039): 0.5224
log2(fold-change) Ccnb2 (2B-Veh vs 2B-RG3039): 0.5384
log2(fold-change) Cd101 (2B-Veh vs 2B-RG3039): -0.9911
log2(fold-change) Cd248 (2B-Veh vs 2B-RG3039): 0.749
log2(fold-change) Cdk1 (2B-Veh vs 2B-RG3039): 0.4623
log2(fold-change) Cdkn1a (2B-Veh vs 2B-RG3039): -0.7839
log2(fold-change) Chaf1b (2B-Veh vs 2B-RG3039): 0.7063
log2(fold-change) Chodl (2B-Veh vs 2B-RG3039): 0.3892
log2(fold-change) Col8a1 (2B-Veh vs 2B-RG3039): 0.5045
log2(fold-change) Col12a1 (2B-Veh vs 2B-RG3039): 0.6621
log2(fold-change) Colq (2B-Veh vs 2B-RG3039): -0.452
log2(fold-change) Crispld1 (2B-Veh vs 2B-RG3039): 0.7708
log2(fold-change) Cth (2B-Veh vs 2B-RG3039): -0.9118
log2(fold-change) Cxcl12 (2B-Veh vs 2B-RG3039): 0.9102
log2(fold-change) D630039A03Rik (2B-Veh vs 2B-RG3039): -0.7287
log2(fold-change) Dao (2B-Veh vs 2B-RG3039): -0.6435
log2(fold-change) Dcxr (2B-Veh vs 2B-RG3039): -0.6455
log2(fold-change) Ddit4 (2B-Veh vs 2B-RG3039): -0.977
log2(fold-change) Ddo (2B-Veh vs 2B-RG3039): -0.6951
log2(fold-change) Depdc1b (2B-Veh vs 2B-RG3039): 0.6712
log2(fold-change) Dlgap5 (2B-Veh vs 2B-RG3039): 0.6868
log2(fold-change) Dnah8 (2B-Veh vs 2B-RG3039): 0.7242
log2(fold-change) Dtl (2B-Veh vs 2B-RG3039): 0.8053
log2(fold-change) E230015J15Rik (2B-Veh vs 2B-RG3039): -1.036
log2(fold-change) Edn1 (2B-Veh vs 2B-RG3039): -1.282
log2(fold-change) Ednrb (2B-Veh vs 2B-RG3039): 0.7966
log2(fold-change) Egfl6 (2B-Veh vs 2B-RG3039): 0.8631
log2(fold-change) Elf5 (2B-Veh vs 2B-RG3039): 0.6236
log2(fold-change) Entpd2 (2B-Veh vs 2B-RG3039): 0.5977
log2(fold-change) Espl1 (2B-Veh vs 2B-RG3039): 0.7643
log2(fold-change) Etnppl (2B-Veh vs 2B-RG3039): -2.764
log2(fold-change) Ets1 (2B-Veh vs 2B-RG3039): 0.8775
log2(fold-change) Fabp7 (2B-Veh vs 2B-RG3039): 0.8454
log2(fold-change) Fam64a (2B-Veh vs 2B-RG3039): 0.6855
log2(fold-change) Fam107a (2B-Veh vs 2B-RG3039): -1.657
log2(fold-change) Fam214a (2B-Veh vs 2B-RG3039): -0.4707
log2(fold-change) Fam83d (2B-Veh vs 2B-RG3039): -1.4639
log2(fold-change) Fas (2B-Veh vs 2B-RG3039): -0.8656
log2(fold-change) Fgf21 (2B-Veh vs 2B-RG3039): -1
log2(fold-change) Fgfr4 (2B-Veh vs 2B-RG3039): 1.087
log2(fold-change) Fkbp5 (2B-Veh vs 2B-RG3039): -1.583
log2(fold-change) Fli1 (2B-Veh vs 2B-RG3039): 0.4642
log2(fold-change) Fzd10 (2B-Veh vs 2B-RG3039): 1.186
log2(fold-change) Galnt15 (2B-Veh vs 2B-RG3039): -1.568
log2(fold-change) Gatsl3 (2B-Veh vs 2B-RG3039): -1.006
log2(fold-change) Gkn3 (2B-Veh vs 2B-RG3039): 1.302
log2(fold-change) Glul (2B-Veh vs 2B-RG3039): -0.8158
log2(fold-change) Gm266 (2B-Veh vs 2B-RG3039): 0.9562
log2(fold-change) Gm807 (2B-Veh vs 2B-RG3039): -1.6695

— PMC5612656, “In vitro and in vivo effects of 2,4 diaminoquinazoline inhibitors of the decapping scavenger enzyme DcpS: Context-specific modulation of SMN transcript levels” (PLoS ONE, 2017)
